Activity calls are given as the source filed them. The calls are words filed in the database; no cut-off is given here.

One series relates to STF/293. Kind of series: Activation of TCF/beta-catenin transcription in human STF/293 cells assessed as increase in TOP activity by luciferase reporter gene assay. Type of series: cell-based. For orientation: Reporter assays use an easily measured gene product as a stand-in for the process of interest.
Series [1] relates to HEK293. Kind of series: Activation of gene transcription in HEK293 cells assessed as increase in FOP at 10 to 30 uM activity by luciferase reporter gene assay. Type of series: functional, cell-based. Conditions: Homo sapiens.
Series [2] has as its system HEK293. Briefly: Cytotoxicity against STF reporter expressing HEK293 cells at 10 to 30 uM after 24 hrs by fluorescein diacetate dye based fluorescence assay. Conditions: human, hek293, 24 h. Type of series: cell-based.
The nature of series [3]: Activation of Proto-oncogene protein Wnt/beta-catenin pathway in human STF/293 cells assessed as increase in cytosolic beta-catenin expression at 5 to 20 uM after 24 hrs. Type of series: cell-based.
Series [4] can be described thus: Activation of Proto-oncogene protein Wnt/beta-catenin pathway in human STF/293 cells assessed as increase in nuclear beta-catenin expression at 5 to 20 uM after 24 hrs. Type of series: cell-based.
Series [5] concerns the target Casein kinase I isoform alpha (Homo sapiens) (UniProt P48729). Briefly: Inhibition of CK1alpha in human STF/293 cells assessed as reduction in beta-catenin Ser33 phosphorylation at 5 to 20 uM after 24 hrs. Type of series: cell-based.
Series [6] has the same target. Kind of series: Inhibition of CK1alpha in human STF/293 cells assessed as reduction in beta-catenin Ser37 phosphorylation at 5 to 20 uM after 24 hrs. Type of series: cell-based.
For series [7] the target is unchanged. Briefly: Inhibition of CK1alpha in human STF/293 cells assessed as reduction in beta-catenin Ser45 phosphorylation at 5 to 20 uM after 24 hrs. Type of series: cell-based.
Series [8] shares this target. Briefly: Inhibition of CK1alpha in human STF/293 cells assessed as reduction in beta-catenin Thr41 phosphorylation at 5 to 20 uM after 24 hrs. Type of series: cell-based.
Series [9] concerns HEK293. Briefly: Effect on GSK3beta expression in STF reporter expressing HEK293 cells at 5 to 20 uM after 24 hrs. Type of series: functional, cell-based. The conditions noted are these: Homo sapiens.
The subject of series [10] is HEK293. Kind of series: Effect on CK1alpha expression in STF reporter expressing HEK293 cells at 5 to 20 uM after 24 hrs. Type of series: functional, cell-based. The conditions noted are these: Homo sapiens.
Series [11] has as its target Casein kinase I isoform alpha (Homo sapiens) (UniProt P48729). Briefly: Inhibition of CK1alpha in human STF/293 cells assessed as reduction in beta-catenin Ser45 phosphorylation at 20 uM in presence of 200 nM CK1alpha activator pyrvinium after 24 hrs. Type of series: cell-based.
The target is the same in series [12]. Kind of series: Inhibition of CK1alpha in human STF/293 cells assessed as reduction in beta-catenin Ser33/Ser37/Thr41 phosphorylation at 20 uM in presence of 200 nM CK1alpha activator pyrvinium after 24 hrs. Type of series: cell-based.
Series [13] is described as follows: Activation of Proto-oncogene protein Wnt/beta-catenin pathway in human STF/293 cells assessed as increase in beta-catenin expression at 20 uM in presence of 200 nM CK1alpha activator pyrvinium after 24 hrs. Type of series: cell-based.
The nature of series [14]: Activation of Proto-oncogene protein Wnt/beta-catenin pathway in zebra fish assessed as increase in beta-catenin expression at 100 to 300 uM treated from 1.75 hrs post fertilization to 24 hrs post fertilization. The conditions noted are these: Danio rerio.

Sequence of Casein kinase I isoform alpha (Homo sapiens) (P48729 2-337 limits assumed): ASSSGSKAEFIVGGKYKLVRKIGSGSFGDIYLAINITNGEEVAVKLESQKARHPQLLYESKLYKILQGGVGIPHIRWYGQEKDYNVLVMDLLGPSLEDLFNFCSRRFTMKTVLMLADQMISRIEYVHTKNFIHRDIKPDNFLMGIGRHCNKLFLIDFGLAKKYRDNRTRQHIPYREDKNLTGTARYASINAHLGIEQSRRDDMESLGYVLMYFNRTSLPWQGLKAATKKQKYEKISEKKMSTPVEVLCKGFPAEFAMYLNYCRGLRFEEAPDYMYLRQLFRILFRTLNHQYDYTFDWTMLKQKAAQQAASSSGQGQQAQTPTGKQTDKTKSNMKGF

`CC[C@H](CC[C@@H](C)[C@H]1CC[C@H]2[C@@H]3C(=O)C=C4C[C@@H](O)CC[C@]4(C)[C@H]3CC[C@]12C)C(C)C`: the Activity result was “Dose-dependent effect” with STF/293 and “Non-toxic” in the series on HEK293 [2]. For the same compound, the result in the series with HEK293 [1] was inactive.
Consider `C=C(C)[C@@H]1CC[C@]2(C)CC[C@]3(C)[C@H](CC[C@@H]4[C@@]5(C)CC[C@H](O)C(C)(C)[C@@H]5CC[C@]43C)[C@@H]12` [LUPEOL], for which the results for the Activity entry in the series with STF/293 and in the series on HEK293 [2] were “Dose-dependent effect” and “Non-toxic”, respectively.
For the compound `COc1ccn(C)c(=O)c1C#N` [RICININE], the Activity entry in the series on STF/293 was “Dose-dependent effect”; in the series with HEK293 [2] it was “Non-toxic”; in [14] it was “Dose-dependent effect”. Moreover, the result in the series on HEK293 [1], in the series on HEK293 [9] and with HEK293 [10] was inactive. Besides, the outcome in series [3], in series [4] and in [13] was Active. Besides, the inhibition result in series [5], in series [6], in series [7], in series [8], in series [11] and in series [12] was “Active” throughout.
Take `CC[C@H](CC[C@@H](C)[C@H]1CC[C@H]2[C@@H]3CC=C4C[C@@H](O[C@@H]5O[C@H](CO)[C@@H](O)[C@H](O)[C@H]5O)CC[C@]4(C)[C@H]3CC[C@]12C)C(C)C` [SITOGLUSIDE]: the Activity result in the series on STF/293 was “Dose-dependent effect”; in the series with HEK293 [2], “Non-toxic”.

Values taken from ChEMBL document CHEMBL3351547, “Ricinine: a pyridone alkaloid from Ricinus communis that activates the Wnt signaling pathway through casein kinase 1α” (Bioorg Med Chem, 2014).
